Measurements taken from patent publication US8278309B2, “Synthetic mimetics of host defense and uses thereof” (priority 2008, dated 2012).
“Also recorded” adds a separate entry of the source. Counter-ions that a name gives are not always drawn.

Assays:
[1] = system: human erythrocytes (RBCs); assay: Hemolysis assay using human erythrocytes; assay type: cell-based; conditions: vs S. aureus MIC
Experimental: (§4) Pooled whole human blood was centrifuged to separate the red blood cells (RBC). The isolated RBCs were rinsed and diluted in Tris-buffered saline (TBS buffer, pH 7.4) to obtain a 0.22% RBC stock suspension. 5 μL of Compound A stock solution was added to 45 μL of RBC suspension and incubated with shaking for 1 hour at 37° C. At the conclusion of the incubation time, samples were centrifuged and 30 μL of the supernatant was added to 100 μL of water. OD414 measurements were read for hemoglobin concentration. […] EC50 values were determined as described above.

[2] = Hemolysis assay using human erythrocytes; assay type: cell-based; conditions: human, pH 7.4
Experimental: as §4

[3] = In vitro metabolic stability, blood plasma; assay type: in vitro ADME; conditions: 5 μM, 37° C.
Experimental: Pooled plasma samples from human (mixed gender), rat (mixed breed and gender) and dog (mixed breed and gender) were incubated with Compound A (5 μM) at 37° C. for 0 and 60 minutes (duplicate samples). Incubations were terminated by addition of ice-cold precipitation solvent (acetonitrile:glacial acetic acid, 9:1 v/v). Supernatants were diluted with equal volume of 0.1% formic acid and analyzed by HPLC-MS/MS. Plasma stability is reported as % parent compound at 60 minutes relative to amount of parent at 0 minutes.

MSSA 27660 = assay: Mouse peritonitis/sepsis model against MSSA 27660; assay type: in vivo
Acinetobacter spp. = assay: MIC broth microdilution, Gram-negative clinical isolates; assay type: cell-based; conditions: 2-3 isolates/organism
Experimental: (§1) Compound A was evaluated in vitro in accordance with defined CLSI documents specific to the organisms (aerobic, anaerobic or yeast) tested in this study. Ampicillin, ceftazidime, cefuroxime, ciprofloxacin, linezolid, and vancomycin were tested alongside as comparator agents for aerobic bacteria; clindamycin and metronidazole were tested as comparators for anaerobes; fluconazole was tested as a comparator for yeast isolates. Stock solutions of Compound A were prepared in dimethyl sulfoxide (DMSO). Ampicillin, ceftazidime, cefuroxime, ciprofloxacin, linezolid, vancomycin, metronidazole, clindamycin, and fluconazole were prepared each according to its manufacturer's guideline.
(§2) Minimum inhibitory concentrations (MICs) in μg/ml were determined according to CLSI guideline M7-A7 by broth microdilution. All aerobes were tested using Mueller-Hinton broth medium with the exception of Streptococcus spp., which were tested using cation-adjusted Mueller-Hinton broth supplemented with 2-5% lysed horse blood.

Escherichia coli = assay: as above; assay type: cell-based; conditions: 2-3 isolates/organism, read-out: MIC
Experimental: as §1, §2

Klebsiella pneumoniae = assay: as above; assay type: cell-based; conditions: 2-3 isolates/organism, read-out: MIC
Experimental: as §1, §2

Haemophilus influenzae = assay: as above; assay type: cell-based; conditions: 2-3 isolates/organism, read-out: MIC
Experimental: as §1, §2

Klebsiella oxytoca = assay: as above; assay type: cell-based; conditions: 2-3 isolates/organism, read-out: MIC
Experimental: as §1, §2

Providencia stuartii = assay: as above; assay type: cell-based; conditions: 2-3 isolates/organism, read-out: MIC
Experimental: as §1, §2

Enterobacter cloacae = assay: as above; assay type: cell-based; conditions: 2-3 isolates/organism, read-out: MIC
Experimental: as §1, §2

Citrobacter koseri = assay: as above; assay type: cell-based; conditions: 2-3 isolates/organism, read-out: MIC
Experimental: as §1, §2

Citrobacter freundi = assay: as above; assay type: cell-based; conditions: Citrobacter freundi; 2-3 isolates/organism; read-out: MIC
Experimental: as §1, §2

MRSA ATCC 33591 = assay: Serial passage resistance, MRSA; assay type: cell-based, S. aureus; conditions: 0.5×MIC, 17 passages
Experimental: (§3) Frozen bacterial stocks (20 μL) of S. aureus ATCC29213 or methicillin-resistant S. aureus (MRSA ATCC 33591) were inoculated into 3 mL cation-adjusted Mueller-Hinton medium and incubated at 37° C. on a shaker platform (250 rpm) overnight. The suspension was diluted to approximately 5×10^5 cfu/mL and inoculated into a polypropylene (Costar) 96-well round bottom plate (90 μL volumes). Compound stock solutions of Compound A and norfloxacin (Sigma Aldrich, St. Louis, Mo.; Catalogue# N9890) were prepared in DMSO and serial two-fold dilutions of compound were made in 0.01% acetic acid, 0.2% bovine serum albumin directly in the wells of the polypropylene plate at 10 μL/well. Final concentrations of Compound A were 50, 25, 12.5, 6.25, 3.13, 1.56, 0.78, 0.39, 0.19, 0.098, 0.049, and 0.024 μg/mL. Final concentration ranges of norfloxacin were 100, 50, 25, 12.5, 6.25, 3.13, 1.56, 0.78, 0.39, 0.19, 0.098, and 0.049 μg/mL. […] All samples were performed in triplicate. Following a 24 hour incubation at 37° C., cell growth was assessed by observing the presence of “acceptable growth”, defined by CLSI as a ≧2 mm button or definite turbidity. The MIC wells were defined as the lowest concentration where acceptable growth was not observed. For serial passage, 50 μL aliquots were taken from 2 of 3 replicate wells at 0.5×MIC and combined into 900 μL of fresh cation-adjusted Mueller-Hinton medium. The OD600 was measured and the cell suspensions were inoculated into polypropylene 96-well round bottom plates (90 μL volumes) at approximately 5×10^5 cfu/mL. Ten μL of compound stock solutions were added previously to the wells to achieve the concentration ranges for each compound described above. All samples were performed in triplicate. The plates were incubated for 24 hours at 37° C. This process was repeated for a total of 17 passages and MIC values were recorded at each passage.

MSSA ATCC 29213 = assay: Serial passage resistance, MSSA; assay type: cell-based, S. aureus; conditions: 0.5×MIC, 17 passages
Experimental: as §3

[4] = Stability in presence of plasma and isolated hepatocytes; conditions: multiple species
S. aureus = assay: MIC or MIC90 vs S. aureus (selectivity table); assay type: cell-based; conditions: Staphylococcus aureus; * marks MIC90
S. aureus (ATCC 13507) = assay: Rat thigh burden model; assay type: in vivo; conditions: for reduction of bacterial load in comparison to inoculated controls / reduction relative to inoculum levels at 1 hour post-infection: 10 mg/kg/dose, 20 mg/kg total dose
Experimental: For each experiment, female 8-9-week old femoral vein cannulated Crl:CD(SD) rats were made neutropenic with cyclophosphamide (150 mg/kg, i.p.) on days 4 and 1 before i.m. inoculation with S. aureus (ATCC 13507). A suspension of S. aureus was prepared from colonies obtained from an overnight culture, placed in PBS, and adjusted to approximately 10^7 cfu/mL with the aid of a spectrophotometer. Each rat was injected 0.2 mL of inoculum into the thigh muscle of the right hind leg. Thighs were harvested at 25 hours after inoculation and processed to determine cfu/thigh. Compound A was given by i.v. bolus injection into a tail vein or 1-hour i.v. infusion, or 4-hour i.v. infusion via the femoral vein cannulae at different time intervals following inoculation. Separate inoculation control groups were included in each experiment, and vancomycin groups were included as comparative agents in the first and second experiments. Each group, including the controls and comparative agent, consisted of 4 rats.

HepG2 = assay: Cytotoxicity colorimetric assay, HepG2; assay type: cell-based, human; conditions: vs S. aureus MIC
Experimental: (§5) This assay measures the bioreduction of a novel tetrazolium compound to a soluble formazan product by viable cells. HepG2 cells were seeded in 96 well plates at 2×10^4 cells/well in MEM medium with 10% fetal bovine serum (FBS) 24 hours prior to use. NIH/3T3 cells were seeded in 96 well plates at 2×10^4 cells/well in DMEM medium with 10% bovine calf serum (BCS) 24 hours prior to use. […] After incubation, the media was replaced with serum supplemented media and live cells were measured using the Cell Titer 96 Aqueous Non-Proliferation Assay kit (Promega, Madison, Wis.). EC50 values were determined using a four parameter logistic equation: Y=Bottom+(Top-Bottom)/(1+10^((LogEC50−X)*HillSlope)).

[5] = Cytotoxicity colorimetric assay, HepG2; assay type: cell-based, human; conditions: human, HepG2 cells; one hour in serum-free media
Experimental: as §5

N=C(N)NCCCCC(=O)Nc1cc(C(F)(F)F)cc(NC(=O)c2cc(C(=O)Nc3cc(C(F)(F)F)cc(NC(=O)CCCCNC(=N)N)c3O[C@H]3CCNC3)ncn2)c1O[C@H]1CCNC1 [Compound A, pyrimidine-4,6-dicarboxylic acid bis-{[3-(5-guanidino-pentanoylamino)-2-((R)-pyrrolidin-3-yloxy)-5-trifluoromethyl-phenyl]-amide}tetrahydrochloride]
Selectivity (EC50/MIC) RBCs [1]: >500
EC50 at 1 h [2]: > 500 µg/mL
Plasma Stability (%) ([3]; Dog (mixed breeds), 60 minutes): 100%
Plasma Stability (%) ([3]; Human, parent at 60 minutes relative to 0 minutes): 96%
Plasma Stability (%) ([3]; Rat (mixed breeds), 60 minutes): 102%
efficacy in vivo (MSSA 27660): efficacious
MIC (Acinetobacter spp.): 4 µg/mL
MIC (Escherichia coli): 1 to 2 µg/mL
MIC (Klebsiella pneumoniae): 1 to 2 µg/mL
MIC (Haemophilus influenzae): 4 to 8 µg/mL
MIC (Klebsiella oxytoca): 2 to 8 µg/mL
MIC (Providencia stuartii): 16 to 64 µg/mL
MIC (Enterobacter cloacae): 0.5 to 4 µg/mL
MIC (Citrobacter koseri): 1 to 2 µg/mL
MIC (Citrobacter freundi): 2 to 4 µg/mL
change in MIC values on serial passage (MRSA ATCC 33591): did not result in any change; also recorded: no change
change in MIC values on serial passage (MSSA ATCC 29213): did not result in any change; also recorded: no change
stability in the presence of plasma and isolated hepatocytes [4]: stable
MIC90 (S. aureus): 1 µg/mL
reduction of bacterial load in comparison to inoculated controls (S. aureus (ATCC 13507); 1 hour i.v. infusions): 3.0 logs
reduction relative to inoculum levels at 1 hour post-infection (S. aureus (ATCC 13507); 1 hour i.v. infusions): ~2.0 logs
reduction of bacterial load in comparison to inoculated controls (S. aureus (ATCC 13507); i.v. bolus): 3.2 logs
reduction relative to inoculum levels at 1 hour post-infection (S. aureus (ATCC 13507); i.v. bolus): approximately 2.2 logs
efficacy relative to vancomycin (S. aureus (ATCC 13507); rat thigh burden): comparable to vancomycin
Selectivity (EC50/MIC) HepG2 (HepG2): 1,031
EC50 at 1 h [5]: 1030 µg/mL
